Results reported in ChEMBL document CHEMBL5338739, “Discovery of Dual Lysine Methyltransferase G9a and EZH2 Inhibitors with In Vivo Efficacy against Malignant Rhabdoid Tumor” (J Med Chem, 2023).
Active and inactive are the calls of the source. The rule behind the calls is not given here.

Legend:
RD [1] = assay: Cytotoxicity against human RD cells assessed as reduction in cell viability incubated for 72 hrs by MTT assay; format: functional
SW982 [2] = assay: Cytotoxicity against human SW982 cells assessed as reduction in cell viability incubated for 72 hrs by MTT assay; format: functional
[3] = target: T1, Histone-lysine N-methyltransferase EZH2 (Homo sapiens, UniProt Q15910); assay: Inhibition of human EZH2 using SAM as substrate incubated for 1 hr by microplate luminescence based HMT assay
Target sequence in this assay (Q15910 whole entry): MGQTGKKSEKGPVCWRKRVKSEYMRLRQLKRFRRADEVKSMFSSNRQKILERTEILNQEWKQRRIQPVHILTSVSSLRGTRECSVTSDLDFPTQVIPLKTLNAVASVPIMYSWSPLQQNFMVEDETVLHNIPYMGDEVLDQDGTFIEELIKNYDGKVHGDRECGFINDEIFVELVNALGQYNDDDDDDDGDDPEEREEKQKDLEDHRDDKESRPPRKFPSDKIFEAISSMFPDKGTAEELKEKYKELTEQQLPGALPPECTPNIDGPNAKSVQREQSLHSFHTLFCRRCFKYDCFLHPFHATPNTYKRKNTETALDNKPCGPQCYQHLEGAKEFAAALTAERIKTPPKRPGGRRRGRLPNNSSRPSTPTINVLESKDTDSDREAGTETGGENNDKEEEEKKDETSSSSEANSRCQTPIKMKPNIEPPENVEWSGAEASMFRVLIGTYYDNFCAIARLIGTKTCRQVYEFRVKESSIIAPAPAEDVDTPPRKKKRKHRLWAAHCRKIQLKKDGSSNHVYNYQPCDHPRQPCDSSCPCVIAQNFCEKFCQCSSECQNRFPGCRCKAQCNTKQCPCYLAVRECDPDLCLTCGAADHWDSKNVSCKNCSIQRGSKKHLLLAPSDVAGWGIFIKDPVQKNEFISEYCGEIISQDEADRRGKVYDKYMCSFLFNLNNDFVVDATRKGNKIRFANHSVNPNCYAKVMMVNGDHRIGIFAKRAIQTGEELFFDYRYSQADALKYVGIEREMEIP

[4] = target: Histone-lysine N-methyltransferase, H3 lysine-79 specific (Homo sapiens) (UniProt Q8TEK3); assay: Inhibition of […] (unknown origin) using SAM as substrate at 10 uM by time-resolved fluorescence assay relative to control
[5] = target: T1, Histone-lysine N-methyltransferase EZH2; assay: Inhibition of human EZH2 using SAM as substrate at 10 uM by time-resolved fluorescence assay relative to control
Target sequence in this assay (Q15910 whole entry, looked up): as the sequence (Q15910 whole entry) above

[6] = Tmax in Sprague-Dawley rat at 30 mg/kg, po administered for 24 hrs by HPLC analysis; format: ADME, organism-based; conditions: in vivo
[7] = Cmax in Sprague-Dawley rat at 10 mg/kg, iv administered for 12 hrs by HPLC analysis; format: ADME, organism-based; set-up: dose 10 mg/kg, time 12 hrs, route iv; conditions: in vivo
[8] = Cmax in Sprague-Dawley rat at 30 mg/kg, po administered for 24 hrs by HPLC analysis; format: ADME, organism-based; set-up: time 24 hrs, dose 30 mg/kg, route po; conditions: in vivo
[9] = Half life in Sprague-Dawley rat at 10 mg/kg, iv administered for 12 hrs by HPLC analysis; format: ADME, organism-based; conditions: in vivo
[10] = Half life in Sprague-Dawley rat at 30 mg/kg, po administered for 24 hrs by HPLC analysis; format: ADME, organism-based; conditions: in vivo
[11] = Clearance in Sprague-Dawley rat at 30 mg/kg, po administered for 24 hrs by HPLC analysis; format: ADME, organism-based; conditions: in vivo
[12] = Apparent volume of distribution in Sprague-Dawley rat at 30 mg/kg, po administered for 24 hrs by HPLC analysis; format: ADME, organism-based; conditions: in vivo
[13] = AUC (0 to 24 hrs) in Sprague-Dawley rat at 30 mg/kg, po administered for 24 hrs by HPLC analysis; format: ADME, organism-based; set-up: time 24 hrs, dose 30 mg/kg, route po; conditions: in vivo
[14] = AUC (0 to infinity) in Sprague-Dawley rat at 10 mg/kg, iv administered for 12 hrs by HPLC analysis; format: ADME, organism-based; set-up: time 12 hrs, dose 10 mg/kg, route iv; conditions: in vivo
[15] = AUC (0 to infinity) in Sprague-Dawley rat at 30 mg/kg, po administered for 24 hrs by HPLC analysis; format: ADME, organism-based; set-up: time 24 hrs, dose 30 mg/kg, route po; conditions: in vivo
[16] = target: T1, Histone-lysine N-methyltransferase EZH2; assay: Binding affinity to EZH2 in human RD cells assessed as decrease in pronase E mediated EZH2 hydrolyzation incubated for 1 hr by DARTS analysis; format: cell-based; conditions: dose 5-20 µM
Target sequence in this assay (Q15910 whole entry, looked up): as the sequence (Q15910 whole entry) above

[17] = target: T1, Histone-lysine N-methyltransferase EZH2; assay: Binding affinity to EZH2 in human RD cells assessed as increase in protein thermal stability at 5 uM incubated for 4 hrs by CETSA based Western blot analysis; format: cell-based
Target sequence in this assay (Q15910 whole entry, looked up): as the sequence (Q15910 whole entry) above

RD [18] = assay: Downregulation of H3K9me2 expression in human RD cells at 5 uM incubated for 6 days by Western blotting analysis; format: functional, cell-based; conditions: time 6.0 day
RD [19] = assay: Antiproliferative activity against human RD cells assessed as reduction in clone formation rate at 5 uM for 1 to 2 weeks with fresh medium replacement for every 2 to 3 days by crystal violet staining based microscopic analysis; format: functional, cell-based; conditions: time 1-2 weeks
SW982 [20] = assay: Antiproliferative activity against human SW982 cells assessed as reduction in clone formation rate at 5 uM for 1 to 2 weeks with fresh medium replacement for every 2 to 3 days by crystal violet staining based microscopic analysis; format: functional, cell-based; conditions: time 1-2 weeks
RD [21] = assay: Antitumor activity against human RD cells xenografted in BALB/c nude mouse assessed as suppression of tumor growth administered intraperitoneally for 5 consecutive days followed by 2 rest days for 3 weeks; conditions: dose 10-20 mg/kg, route ip
[22] = Toxicity in BALB/c nude mouse xenografted with human RD cells assessed as mortality at 10 to 20 mg/kg, ip administered for 5 consecutive days followed by 2 rest days for 3 weeks; format: organism-based; conditions: in vivo, 504 h, dose 10-20 mg/kg
RD [23] = assay: Antitumor activity against human RD cells xenografted in BALB/c nude mouse assessed as tumor growth inhibition at 10 to 20 mg/kg, ip administered for 5 consecutive days followed by 2 rest days for 3 weeks; format: functional; conditions: dose 10-20 mg/kg
Mus musculus [24] = assay: Downregulation of H3K9me2 expression in tumor tissue of BALB/c nude mouse xenografted with human RD cells at 20 mg/kg, ip administered for 5 consecutive days followed by 2 rest days for 3 weeks by Western blotting analysis; format: functional, organism-based
Mus musculus [25] = assay: Downregulation of H3K27me3 expression in tumor tissue of BALB/c nude mouse xenografted with human RD cells at 20 mg/kg, ip administered for 5 consecutive days followed by 2 rest days for 3 weeks by Western blotting analysis; format: functional, organism-based
[26] = Toxicity in BALB/c nude mouse xenografted with human RD cells assessed as body weight fluctuations at 10 to 20 mg/kg, ip administered for 5 consecutive days followed by 2 rest days for 3 weeks; format: organism-based; conditions: in vivo, 504 h, dose 10-20 mg/kg
[27] = Toxicity in BALB/c nude mouse xenografted with human RD cells assessed as effect on spleen viscera index at 10 to 20 mg/kg, ip administered for 5 consecutive days followed by 2 rest days for 3 weeks; format: organism-based; conditions: in vivo, 504 h, dose 10-20 mg/kg
[28] = Toxicity in BALB/c nude mouse xenografted with human RD cells assessed as effect on lung viscera index at 10 to 20 mg/kg, ip administered for 5 consecutive days followed by 2 rest days for 3 weeks; format: organism-based; conditions: in vivo, 504 h, dose 10-20 mg/kg
[29] = Toxicity in BALB/c nude mouse xenografted with human RD cells assessed as effect on kidney viscera index at 10 to 20 mg/kg, ip administered for 5 consecutive days followed by 2 rest days for 3 weeks; format: organism-based; conditions: in vivo, 504 h, dose 10-20 mg/kg
RD [30] = assay: Antitumor activity against human RD-EV cells xenografted in BALB/c nude mouse assessed as tumor growth inhibition at 20 mg/kg, ip administered for 15 days; format: functional; conditions: 360 h, time 15 day, read-out: TGI
RD [31] = assay: Antitumor activity against EZH2 and G9a knockdown human RD cells xenografted in BALB/c nude mouse assessed as tumor growth inhibition at 20 mg/kg, ip administered for 15 days; format: functional, organism-based; conditions: time 15.0 day
RD [32] = assay: Downregulation of H3K4me1 expression in human RD cells at 5 uM incubated for 6 days by immunoblotting analysis; format: functional, cell-based; conditions: time 6.0 day
RD [33] = assay: Downregulation of H3K4me2 expression in human RD cells at 5 uM incubated for 6 days by immunoblotting analysis; format: functional, cell-based; conditions: time 6.0 day
RD [34] = assay: Downregulation of H3K79me1 expression in human RD cells at 5 uM incubated for 6 days by immunoblotting analysis; format: functional, cell-based; conditions: time 6.0 day
RD [35] = assay: Downregulation of H3K79me2 expression in human RD cells at 5 uM incubated for 6 days by immunoblotting analysis; format: functional, cell-based; conditions: time 6.0 day
RD [36] = assay: Downregulation of H3K36me2 expression in human RD cells at 5 uM incubated for 6 days by immunoblotting analysis; format: functional, cell-based; conditions: time 6.0 day

Sequence of Histone-lysine N-methyltransferase, H3 lysine-79 specific (Homo sapiens) (Q8TEK3 whole entry, looked up): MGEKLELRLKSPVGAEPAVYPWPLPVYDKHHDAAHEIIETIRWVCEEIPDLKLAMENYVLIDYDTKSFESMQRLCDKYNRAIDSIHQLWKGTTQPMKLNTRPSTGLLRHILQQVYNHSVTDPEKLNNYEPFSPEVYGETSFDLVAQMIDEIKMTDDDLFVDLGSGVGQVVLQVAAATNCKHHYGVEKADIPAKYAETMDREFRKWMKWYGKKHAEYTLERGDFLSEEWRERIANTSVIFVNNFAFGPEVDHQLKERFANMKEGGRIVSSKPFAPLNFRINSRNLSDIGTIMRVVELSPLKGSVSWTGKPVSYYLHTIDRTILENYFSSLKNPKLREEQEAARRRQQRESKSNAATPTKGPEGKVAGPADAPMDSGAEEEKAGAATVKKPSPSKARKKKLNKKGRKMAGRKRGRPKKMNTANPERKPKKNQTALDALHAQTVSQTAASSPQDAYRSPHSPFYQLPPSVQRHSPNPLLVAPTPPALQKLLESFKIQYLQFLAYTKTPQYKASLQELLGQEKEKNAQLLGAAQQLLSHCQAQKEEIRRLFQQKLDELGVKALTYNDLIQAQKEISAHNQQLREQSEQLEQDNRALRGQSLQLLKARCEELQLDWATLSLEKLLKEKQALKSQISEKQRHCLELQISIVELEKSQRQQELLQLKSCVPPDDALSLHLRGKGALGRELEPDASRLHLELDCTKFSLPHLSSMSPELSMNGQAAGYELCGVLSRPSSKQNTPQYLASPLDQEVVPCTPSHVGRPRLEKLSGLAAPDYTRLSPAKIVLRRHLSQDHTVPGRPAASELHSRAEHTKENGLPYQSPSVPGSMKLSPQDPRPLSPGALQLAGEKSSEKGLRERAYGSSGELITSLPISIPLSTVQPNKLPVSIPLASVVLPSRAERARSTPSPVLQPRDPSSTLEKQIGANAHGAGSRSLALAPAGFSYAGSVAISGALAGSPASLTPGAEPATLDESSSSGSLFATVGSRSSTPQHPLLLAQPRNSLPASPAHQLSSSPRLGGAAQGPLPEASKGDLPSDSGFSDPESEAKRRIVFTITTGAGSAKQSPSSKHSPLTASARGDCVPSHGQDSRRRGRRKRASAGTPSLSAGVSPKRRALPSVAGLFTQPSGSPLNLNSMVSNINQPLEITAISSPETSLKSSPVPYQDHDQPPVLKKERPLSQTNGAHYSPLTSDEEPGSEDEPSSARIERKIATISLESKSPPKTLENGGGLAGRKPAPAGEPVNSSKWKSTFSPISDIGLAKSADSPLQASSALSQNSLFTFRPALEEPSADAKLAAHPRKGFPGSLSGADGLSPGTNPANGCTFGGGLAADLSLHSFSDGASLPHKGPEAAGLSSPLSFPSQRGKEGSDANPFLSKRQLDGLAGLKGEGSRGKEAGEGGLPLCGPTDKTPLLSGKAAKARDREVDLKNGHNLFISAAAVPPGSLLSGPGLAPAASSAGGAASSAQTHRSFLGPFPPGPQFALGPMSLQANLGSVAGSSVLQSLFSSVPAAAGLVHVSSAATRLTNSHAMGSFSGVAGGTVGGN

Compound: COc1cc2c(NCc3c(C)cc(C)[nH]c3=O)nc(N3CCC(F)(F)CC3)nc2cc1OCCCN1CCCC1
- CC50 (RD [1]): 19.6 µM
- CC50 (SW982 [2]): 19.9 µM
- IC50 [3]: 0.00435 µM
- inhibition [4]: -5.87%
- inhibition [5]: 98.3%
- Tmax [6]: 0.69 h
- Cmax [7]: 1380 ng/mL
- Cmax [8]: 3180 ng/mL
- half-life [9]: 3.47 h
- half-life [10]: 4.02 h
- CL/F [11]: 59.7 mL/min/kg
- Vc [12]: 17.518 L/kg
- AUC(0-t) at 24 h [13]: 5350 ng·h/mL
- AUC [14]: 2476.02 ng·h/mL
- AUC(0-inf) [15]: 11400 ng·h/mL
- Activity [16]: Dose-Dependent Effect
- Activity [17]: Active
- Activity (RD [18]): Active
- Activity (RD [19]): Active
- Activity (SW982 [20]): Active
- Activity (RD [21]): Dose-Dependent Effect
- Activity [22]: Non-Toxic
- TGI (RD [23]): 86.6%
- Activity (Mus musculus [24]): Active
- Activity (Mus musculus [25]): Active
- Activity [26]: Non-Toxic
- Activity [27]: Non-Toxic
- Activity [28]: Non-Toxic
- Activity [29]: Non-Toxic
- inhibition in vivo at 20 mg/kg (RD [30]): 55.4%
- inhibition (RD [31]): inactive
- Activity (RD [32]): inactive
- Activity (RD [33]): inactive
- Activity (RD [34]): inactive
- Activity (RD [35]): inactive
- Activity (RD [36]): inactive
